Assay results reported in the supplement of paper PMC4862054.

Assays:
Conditions in all cases: incubation time: 72 h
[1] = tested on: MFM-223; assay: normalised viability (% of control), CellTiter-Blue; higher = more viable cells (about 100 = DMSO control)
Outline: (§1)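 The reported quantity is normalised viability at a single listed concentration of the series. Compound in 5 µl medium was pre-dispensed into 384-well plates and 20 µl of breast cancer cell suspension was added for 72 h. A 2 h, 37 °C CellTiter-Blue step (2.5 µl) preceded fluorescence reading at 560/590 nm, and plates were normalised to vehicle (100) and a positive kill control (0).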

[2] = tested on: HCC1599; assay: as above
Outline: as §1

[3] = tested on: MDA-MB-436; assay: as above
Outline: as §1

[4] = tested on: Hs578T; assay: as above
Outline: as §1

[5] = tested on: MDA-MB-453; assay: as above
Outline: as §1

[6] = tested on: CAL-51; assay: as above
Outline: as §1

[7] = tested on: CAL-120; assay: as above
Outline: as §1

[8] = tested on: MFM-223; assay: drug sensitivity score (DSS), CellTiter-Blue viability (DSS (AUC-based score)); higher = stronger viability inhibition; extreme values may be limits of the assay
Experimental: (§2)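 DSRT with the CellTiter-Blue (resazurin reduction) viability readout, fluorescence 560/590 nm, 72 h incubation. Plates were normalised to DMSO and benzethonium chloride controls. DSS is computed from the area under the fitted dose-response curve (5 or 9 concentrations).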

[9] = tested on: HCC1599; assay: as above
Experimental: as §2

[10] = tested on: MDA-MB-436; assay: as above
Experimental: as §2

[11] = tested on: HCC1143; assay: as above
Experimental: as §2

[12] = tested on: HCC1937; assay: as above
Experimental: as §2

[13] = tested on: Hs578T; assay: as above
Experimental: as §2

[14] = tested on: SK-BR-3; assay: as above
Experimental: as §2

[15] = tested on: MDA-MB-453; assay: as above
Experimental: as §2

[16] = tested on: BT-474; assay: as above
Experimental: as §2

[17] = tested on: CAL-148; assay: as above
Experimental: as §2

[18] = tested on: MDA-MB-468; assay: as above
Experimental: as §2

[19] = tested on: HDQ-P1; assay: as above
Experimental: as §2

[20] = tested on: CAL-51; assay: as above
Experimental: as §2

[21] = tested on: MDA-MB-231; assay: as above
Experimental: as §2

[22] = tested on: CAL-85-1; assay: as above
Experimental: as §2

[23] = tested on: DU-4475; assay: as above
Experimental: as §2

[24] = tested on: BT-549; assay: as above
Experimental: as §2

[25] = tested on: CAL-120; assay: as above
Experimental: as §2

CC1(C)CCC(c2ccc(Cl)cc2)=C(CN2CCN(c3ccc(C(=O)NS(=O)(=O)c4ccc(N[C@H](CCN5CCOCC5)CSc5ccccc5)c(S(=O)(=O)C(F)(F)F)c4)cc3)CC2)C1 [Navitoclax]
normalised viability [%]
Conditions | [1] | [2] | [3] | [4] | [5] | [6] | [7]
3 nM | – | – | – | – | 104 | 112 | –
10 nM | 77.2 | 94.5 | 76.2 | 91.8 | – | – | 69.9
30 nM | – | – | – | – | 88.5 | 104 | –
100 nM | – | – | – | – | 74.9 | 101 | –
1000 nM | 68.7 | 62.2 | 98.7 | 92.2 | – | – | 64.7
10000 nM | 40.6 | 74.7 | 71.7 | 88.8 | – | – | 30.5

Conditions | drug sensitivity score
[8] | 2.7
[9] | 5.97
[10] | 0
[11] | 0
[12] | 0
[13] | 0
[14] | 0
[15] | 0
[16] | 0
[17] | 4.37
[18] | 3.12
[19] | 9.87
[20] | 0
[21] | 7.75
[22] | 0
[23] | 17.2
[24] | 3.17
[25] | 6.12

C=CCN(/C=C1/C(=O)O[C@H](COC)[C@@]2(C)C1=C(O)C(=O)C1=C2[C@H](OC(C)=O)C[C@]2(C)C(=O)CC[C@@H]12)CC=C [PX-866]
normalised viability [%]
Conditions | [1] | [2] | [3] | [4] | [5] | [6] | [7]
3 nM | – | – | – | – | 128 | 118 | –
10 nM | 86.5 | 98.3 | 93.3 | 120 | – | – | 94.4
30 nM | – | – | – | – | 95.7 | 107 | –
100 nM | – | – | – | – | 98.9 | 103 | –
1000 nM | 96.9 | 105 | 90.2 | 89.4 | – | – | 85.9
10000 nM | 95.9 | 78.3 | 62 | 40.1 | – | – | 71.3

Conditions | drug sensitivity score
[8] | 0
[9] | 0
[10] | 0
[11] | 3.95
[12] | 5.15
[13] | 3.48
[14] | 9.05
[15] | 0
[16] | 5.22
[17] | 0
[18] | 8.51
[19] | 3.65
[20] | 0
[21] | 5.75
[22] | 0
[23] | 0
[24] | 0
[25] | 2.93

CCN(CC)CCCC(C)Nc1ccnc2cc(Cl)ccc12 (stereo unspecified) [Chloroquine]
normalised viability [%]
Conditions | [1] | [2] | [3] | [4] | [5] | [6] | [7]
0.297 nM | – | – | – | – | 108 | 94 | –
0.99 nM | 101 | 100 | 133 | 92 | – | – | 96.1
2.97 nM | – | – | – | – | 111 | 92.9 | –
9.9 nM | – | – | – | – | 105 | 91.7 | –
99 nM | 106 | 85.6 | 104 | 106 | – | – | 104
990 nM | 94.2 | 119 | 141 | 93.1 | – | – | 105

Conditions | drug sensitivity score
[8] | 0
[9] | 0
[10] | 0
[11] | 0
[12] | 0
[13] | 0
[14] | 0
[15] | 0
[16] | 0
[17] | 0
[18] | 0
[19] | 0
[20] | 0
[21] | 0
[22] | 0
[23] | 0
[24] | 0
[25] | 0

CCNC(=O)c1noc(-c2cc(C(C)C)c(O)cc2O)c1-c1ccc(CN2CCOCC2)cc1 [NVP-AUY922]
normalised viability [%]
Conditions | [1] | [2] | [3] | [4] | [5] | [6] | [7]
0.3 nM | – | – | – | – | 124 | 107 | –
1 nM | 97.4 | 101 | 111 | 110 | – | – | 101
3 nM | – | – | – | – | 98 | 106 | –
10 nM | – | – | – | – | 83.2 | 104 | –
100 nM | 26.1 | 43.4 | 11.2 | 44.1 | – | – | 18.9
1000 nM | 25.4 | 41.2 | 19.9 | 37.2 | – | – | 17.1

Conditions | drug sensitivity score
[8] | 20.9
[9] | 9.96
[10] | 20.7
[11] | 9.99
[12] | 26.1
[13] | 18.8
[14] | 22.8
[15] | 20.8
[16] | 15.2
[17] | 18.1
[18] | 19.4
[19] | 18
[20] | 18.6
[21] | 17.3
[22] | 16
[23] | 21.7
[24] | 19.6
[25] | 21.3
